Columns and labels:
Assay type in all cases: binding
NTSR1 = molecular target: T1, NTSR1 (Homo sapiens, UniProt P30989); test: NanoBRET screen HiBiT-NTSR1 in HEK293; conditions: NTSR1
T1 construct: purchased Promega (in-house HiBiT-GPCR construct library, NanoBRET)
Protocol: (§1) Each tracer candidate was screened across the entire library of HiBiT-GPCR constructs using NanoBRET as the detection modality. As depicted in Figure 4A, the specificity of interactions was evaluated through decrease in BRET due to competitive displacement of a bound tracer by excess parental compound. Each tracer was analyzed for binding to each HiBiT-GPCR fusion in the absence and in the presence of competing parental compound. Briefly, HEK293 cells were transfected with HiBiT-GPCR constructs diluted into promoterless DNA to reduce expression and maximize translocation to the cell surface. Each tracer candidate was then screened at concentrations of 1 μM and 0.1 μM across cells expressing these fusions. Cells were treated for 1.5 h with tracer either alone or in the presence of 20 μM competing parental compound (i.e., control). BRET was measured upon addition of purified LgBiT and subsequent complementation with HiBiT genetically fused to a GPCR. The specificity of interactions was assessed through a decrease in BRET signal due to competitive displacement of the bound tracer. To further gauge the robustness of these interactions, the fold response over the control (i.e., BRETtracer/BRETcontrol) was calculated. We chose a 1.5-fold response, which translates to ≥7-fold signal over noise as the minimal threshold required to score an interaction as positive. […]. Below we highlight the screening results obtained for our exemplary fluorescent tracers based on Clozapine, Amitriptyline and AZD1283.
(§2) HiBiT-GPCR DNA constructs were diluted in 10 mM Tris pH 8 to a final concentration of 0.01 μg/μL, arrayed in 96-well plates and stored at −20 °C. For transfection, HEK293 cells were suspended in Opti-MEM (without phenol red) supplemented with 2% fetal bovine serum (Seradigm) and 100 units/mL penicillin–streptomycin (Gibco) at a final concentration of 220,000 cells/mL and dispensed into white 96-well plates at 90 μL/well. Subsequent transfections and screens were carried using an Agilent Bravo Automated Liquid Handling Platform. First, the 96-well HiBiT DNA arrays were diluted 25-fold in Opti-MEM (without serum or phenol red) to a final concentration of 0.0004 μg/μL and 20 μL of the diluted DNAs were transferred into new 96-well plates. Next, promoterless carrier DNA (1 μg/μL) was diluted 25-fold (0.04 μg/μL) and then dispensed into the diluted arrays at 20 μL/well. Following brief mixing, Viafect transfection reagent (Promega) diluted 16-fold into Opti-MEM was dispensed into the plates at 40 μL/well. After mixing by pipetting, plates were incubated for 10 min on the pipetting station deck. The DNA-transfection reagent complexes were then added to plates containing cells. To facilitate the screen, 10 μL of DNA-transfection reagent complexes were added in duplicates to the top 4 and bottom 4 rows, resulting in two identical 48-well arrays per plate. Plates with transfected cells were incubated for 18–20 h at 37 °C/5% CO2. A screen of each tracer across the entire library using two different concentrations requires duplicate plates of transfected cells. Depending on the number of tracers being screened, transfections can be scaled up using the same ratios. The next day, for each tracer, four 20× screening solutions in tracer dilution buffer (Promega) were prepared: two duplicates at final concentration of 20 μM and two duplicates at a final concentration of 2 μM. A competing unmodified compound was added to one of each duplicate at a final concentration of 400 μM. The four resulting solutions were diluted 4-fold in Opti-MEM without serum or phenol red to generate 5× solutions (5 µM and 0.5 µM tracer +/− 100 μM competing compound). To screen the library, a BioTek MultiFlo FX liquid dispenser was used to dispense 22.5 µL of tracer solution to the top 4 rows and 22.5 µL tracer + competing compound solution to the 4 bottom rows. Plates were briefly mixed on an orbital shaker and incubated for 1.5 h at room temperature. […]

VIPR1 = molecular target: T2, VIPR1 (Homo sapiens, UniProt P32241); test: NanoBRET screen HiBiT-VIPR1 in HEK293; conditions: VIPR1
T2 construct: purchased Promega (in-house HiBiT-GPCR construct library, NanoBRET)
T2 sequence (P32241 31-457): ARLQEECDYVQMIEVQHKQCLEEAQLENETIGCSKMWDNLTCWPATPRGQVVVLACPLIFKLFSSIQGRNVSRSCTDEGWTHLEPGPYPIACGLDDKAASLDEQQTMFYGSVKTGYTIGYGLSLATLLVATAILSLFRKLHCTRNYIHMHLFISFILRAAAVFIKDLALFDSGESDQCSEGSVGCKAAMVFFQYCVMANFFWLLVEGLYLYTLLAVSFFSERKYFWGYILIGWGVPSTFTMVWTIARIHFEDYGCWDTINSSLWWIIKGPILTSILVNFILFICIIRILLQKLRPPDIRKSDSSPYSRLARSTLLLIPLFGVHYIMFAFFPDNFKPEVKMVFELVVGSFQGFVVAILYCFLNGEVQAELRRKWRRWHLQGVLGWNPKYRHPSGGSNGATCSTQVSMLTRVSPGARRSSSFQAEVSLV
Protocol: as §1, §2

F2RL3 = molecular target: T3, F2RL3 (Homo sapiens, UniProt Q96RI0); test: NanoBRET screen HiBiT-F2RL3 in HEK293; conditions: F2RL3
T3 construct: purchased Promega (in-house HiBiT-GPCR construct library, NanoBRET)
T3 sequence (Q96RI0 18-385): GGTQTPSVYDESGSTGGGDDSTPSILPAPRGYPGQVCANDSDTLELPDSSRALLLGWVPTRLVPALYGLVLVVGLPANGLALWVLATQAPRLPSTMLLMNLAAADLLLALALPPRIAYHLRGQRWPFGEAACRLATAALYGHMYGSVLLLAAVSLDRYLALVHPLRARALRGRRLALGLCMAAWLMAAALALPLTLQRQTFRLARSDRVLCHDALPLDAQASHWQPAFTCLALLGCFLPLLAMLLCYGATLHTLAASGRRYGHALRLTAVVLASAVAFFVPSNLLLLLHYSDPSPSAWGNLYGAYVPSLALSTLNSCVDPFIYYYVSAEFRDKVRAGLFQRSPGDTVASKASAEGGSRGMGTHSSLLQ
Protocol: as §1, §2

T1 sequence (P30989 whole entry): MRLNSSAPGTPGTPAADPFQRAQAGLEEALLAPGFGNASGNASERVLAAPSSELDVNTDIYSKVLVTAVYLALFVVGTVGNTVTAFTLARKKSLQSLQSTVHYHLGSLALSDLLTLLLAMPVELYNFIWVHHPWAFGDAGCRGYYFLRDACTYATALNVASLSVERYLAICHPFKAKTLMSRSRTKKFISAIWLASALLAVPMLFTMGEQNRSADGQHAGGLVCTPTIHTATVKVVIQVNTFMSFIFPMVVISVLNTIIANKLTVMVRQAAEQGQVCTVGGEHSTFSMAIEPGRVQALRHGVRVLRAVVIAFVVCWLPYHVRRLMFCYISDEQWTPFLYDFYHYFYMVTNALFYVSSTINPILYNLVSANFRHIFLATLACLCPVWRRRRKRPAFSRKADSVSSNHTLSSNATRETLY

SMILES: Cc1cc2c(s1)Nc1ccccc1N=C2N1CCN(CCCNC(=O)CCOCCOCCOCCOCCNC(=O)CCc2ccc3n2[B-](F)(F)[N+]2=C(c4ccc[nH]4)C=CC2=C3)CC1 [Olanzapine-a-2-NB590]
- NanoBRET Fold Response (NTSR1; tracer 0.1μM): 1.01
- NanoBRET Fold Response (NTSR1; tracer 1μM): 1.02
- NanoBRET Fold Response (VIPR1; tracer 0.1μM): 1.06
- NanoBRET Fold Response (VIPR1; tracer 1μM): 1.04
- NanoBRET Fold Response (F2RL3; tracer 0.1μM): 1.04
- NanoBRET Fold Response (F2RL3; tracer 1μM): 0.98

SMILES: O=C(CCc1ccc2n1[B-](F)(F)[N+]1=C(c3ccc[nH]3)C=CC1=C2)NCc1ccc(C(=O)NCCOCCOCCNCC(O)COc2cccc3ccccc23)cc1 (stereo not drawn) [Propranolol-3-NB590]
- NanoBRET Fold Response (NTSR1; 0.1μM): 1.06
- NanoBRET Fold Response (NTSR1; 1μM): 1.01
- NanoBRET Fold Response (VIPR1; 0.1μM): 1.03
- NanoBRET Fold Response (VIPR1; 1μM): 1.04
- NanoBRET Fold Response (F2RL3; 0.1μM): 1.07
- NanoBRET Fold Response (F2RL3; 1μM): 1.00

SMILES: O=C(CCc1ccc2n1[B-](F)(F)[N+]1=C(c3ccc[nH]3)C=CC1=C2)NCCOCCOCCNC(=O)OCCOCCN1CCN(C2=Nc3ccccc3Sc3ccccc32)CC1 [Quetiapine-a-2-NB590]
- NanoBRET Fold Response (NTSR1; tracer 0.1μM): 1.03
- NanoBRET Fold Response (NTSR1; tracer 1μM): 0.89
- NanoBRET Fold Response (VIPR1; tracer 0.1μM): 1.03
- NanoBRET Fold Response (VIPR1; tracer 1μM): 0.92
- NanoBRET Fold Response (F2RL3; tracer 0.1μM): 1.09
- NanoBRET Fold Response (F2RL3; tracer 1μM): 0.84

SMILES: Cc1nc2n(c(=O)c1CCN1CCC(c3noc4cc(F)ccc34)CC1)CCCC2OC(=O)NCCOCCOCCOCCOCCNC(=O)CCc1ccc2n1[B-](F)(F)[N+]1=C(c3ccc[nH]3)C=CC1=C2 (stereo not drawn) [Risperidone-2-NB590]
- NanoBRET Fold Response (NTSR1; tracer 0.1μM): 1.00
- NanoBRET Fold Response (NTSR1; tracer 1μM): 0.98
- NanoBRET Fold Response (VIPR1; tracer 0.1μM): 0.98
- NanoBRET Fold Response (VIPR1; tracer 1μM): 1.10
- NanoBRET Fold Response (F2RL3; tracer 0.1μM): 0.98
- NanoBRET Fold Response (F2RL3; tracer 1μM): 0.97

SMILES: CC(C)N(CC[C@H](c1ccccc1)c1cc(CCNC(=O)CCOCCOCCOCCOCCNC(=O)CCc2ccc3n2[B-](F)(F)[N+]2=C(c4ccc[nH]4)C=CC2=C3)ccc1O)C(C)C [Tolterodine-2-NB590]
- NanoBRET Fold Response (NTSR1; tracer 0.1μM): 1.09
- NanoBRET Fold Response (NTSR1; tracer 1μM): 0.90
- NanoBRET Fold Response (VIPR1; tracer 0.1μM): 0.99
- NanoBRET Fold Response (VIPR1; tracer 1μM): 0.78
- NanoBRET Fold Response (F2RL3; tracer 0.1μM): 1.08
- NanoBRET Fold Response (F2RL3; tracer 1μM): 0.97

SMILES: CC(C)N(CC[C@H](c1ccccc1)c1cc(CCNC(=O)c2ccc(CNC(=O)CCc3ccc4n3[B-](F)(F)[N+]3=C(c5ccc[nH]5)C=CC3=C4)cc2)ccc1O)C(C)C [Tolterodine-BZ-NB590]
- NanoBRET Fold Response (NTSR1; tracer 0.1μM): 1.02
- NanoBRET Fold Response (NTSR1; tracer 1μM): 1.03
- NanoBRET Fold Response (VIPR1; tracer 0.1μM): 0.97
- NanoBRET Fold Response (VIPR1; tracer 1μM): 0.98
- NanoBRET Fold Response (F2RL3; tracer 0.1μM): 1.03
- NanoBRET Fold Response (F2RL3; tracer 1μM): 1.06

SMILES: CCCn1c(=O)c2[nH]c(-c3ccc(OCC(=O)NCCNC(=O)CCOCCNC(=O)c4ccc(CNC(=O)CCc5ccc6n5[B-](F)(F)[N+]5=C(c7ccc[nH]7)C=CC5=C6)cc4)cc3)nc2n(CCC)c1=O [XAC-3-NB590]
- NanoBRET Fold Response (NTSR1; tracer 0.1μM): 0.98
- NanoBRET Fold Response (NTSR1; tracer 1μM): 1.02
- NanoBRET Fold Response (VIPR1; tracer 0.1μM): 1.03
- NanoBRET Fold Response (VIPR1; tracer 1μM): 0.99
- NanoBRET Fold Response (F2RL3; tracer 0.1μM): 0.99
- NanoBRET Fold Response (F2RL3; tracer 1μM): 1.05

— paper PMC8151276, “An Integrated Approach toward NanoBRET Tracers for Analysis of GPCR Ligand Engagement” (Molecules, 2021)
